The text below walks through data of ChEMBL document CHEMBL4725341, “Heteroarylureas with fused bicyclic diamine cores as inhibitors of fatty acid amide hydrolase” (Bioorg Med Chem Lett, 2020).

Usually IC50 stands for the concentration needed to halve the response being measured.

Data set [1] can be described thus: In vivo inhibition of FAAH in rat assessed as increase in OEA level in brain at 20 mg/kg, po. In kind it is organism-based.
In data set [2] the target is T1, Fatty-acid amide hydrolase 1 (Homo sapiens, UniProt O00519).
T1 sequence (O00519 whole entry): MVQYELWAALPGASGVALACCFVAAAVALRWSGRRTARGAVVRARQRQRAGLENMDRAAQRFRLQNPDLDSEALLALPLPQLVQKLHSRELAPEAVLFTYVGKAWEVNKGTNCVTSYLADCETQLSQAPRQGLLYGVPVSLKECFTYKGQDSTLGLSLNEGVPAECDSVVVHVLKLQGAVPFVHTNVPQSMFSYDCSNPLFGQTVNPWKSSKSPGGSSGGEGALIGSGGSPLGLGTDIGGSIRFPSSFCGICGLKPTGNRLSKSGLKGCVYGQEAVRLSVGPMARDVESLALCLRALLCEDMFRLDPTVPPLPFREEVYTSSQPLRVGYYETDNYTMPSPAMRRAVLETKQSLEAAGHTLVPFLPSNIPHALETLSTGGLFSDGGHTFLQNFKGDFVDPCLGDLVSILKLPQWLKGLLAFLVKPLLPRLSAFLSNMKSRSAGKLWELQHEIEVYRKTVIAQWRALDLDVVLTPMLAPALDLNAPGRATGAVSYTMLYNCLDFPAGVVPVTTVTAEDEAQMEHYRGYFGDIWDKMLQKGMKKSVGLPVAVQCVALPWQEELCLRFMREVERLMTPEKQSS
The data set can be described thus: Inhibition of human FAAH1 incubated for 60 mins.

Data set [3] can be described thus: Drug accumulation in rat peripheral […] at 20 mg/kg, po. In kind it is ADME, organism-based. To be noted: in vivo.
Data set [4] can be described thus: In vivo inhibition of FAAH in rat assessed as increase in PEA level in brain at 20 mg/kg, po. Type of data set: organism-based.
Data set [5] is described as follows: In vivo inhibition of FAAH in rat assessed as increase in AEA level in brain at 20 mg/kg, po. Type of data set: organism-based.
Data set [6] is described as follows: Drug accumulation in rat CNS at 20 mg/kg, po. Type of data set: ADME, organism-based, Central nervous system. To be noted: in vivo.
Data set [7] deals with T2, Fatty-acid amide hydrolase 1 (Rattus norvegicus, UniProt P97612).
T2 sequence (P97612 whole entry): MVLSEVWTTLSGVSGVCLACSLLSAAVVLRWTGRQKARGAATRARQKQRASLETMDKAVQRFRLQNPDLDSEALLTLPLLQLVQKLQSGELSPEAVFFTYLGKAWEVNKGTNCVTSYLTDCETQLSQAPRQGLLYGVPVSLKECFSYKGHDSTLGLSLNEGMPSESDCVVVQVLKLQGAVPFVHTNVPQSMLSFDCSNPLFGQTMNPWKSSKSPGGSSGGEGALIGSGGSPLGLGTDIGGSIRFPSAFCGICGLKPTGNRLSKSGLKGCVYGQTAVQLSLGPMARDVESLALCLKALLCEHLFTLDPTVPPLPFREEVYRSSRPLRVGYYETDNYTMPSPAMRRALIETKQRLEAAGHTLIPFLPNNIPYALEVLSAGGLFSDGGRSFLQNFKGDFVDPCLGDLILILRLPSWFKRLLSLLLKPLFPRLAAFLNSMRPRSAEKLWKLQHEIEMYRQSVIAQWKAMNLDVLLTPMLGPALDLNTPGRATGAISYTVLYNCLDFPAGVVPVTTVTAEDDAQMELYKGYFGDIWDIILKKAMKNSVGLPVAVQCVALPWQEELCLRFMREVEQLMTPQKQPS
Put plainly: Inhibition of rat FAAH1 incubated for 60 mins.

As to `O=C(Nc1noc2ccccc12)N1CC[C@@H]2CN(Cc3cccc(Oc4ccc(Cl)cc4)c3)C[C@H]2C1`, the “inhibition (INH)” value in data set [1], in data set [4] and in data set [5] was “Not Active” throughout. Also, the concentration for half-maximal inhibition (IC50) is 233 nM in data set [2] and 28 nM in data set [7]. The Drug uptake entry in data set [3] and in data set [6] was “Not Active” each time.
